Laboratory results reported in PMC8371902, “Phase 1 study of M2698, a p70S6K/AKT dual inhibitor, in patients with advanced cancer” (Journal of Hematology & Oncology, 2021).
Read-outs that look alike come from different tables or passages of the source.

Test system: patients with advanced metastatic cancer
From the text: In this phase 1 study, dose escalation was followed by expansion cohorts of once-daily, oral M2698 in continuous 21-day cycles. Primary objectives were to determine the maximum tolerated dose (MTD), dose-limiting toxicities (DLTs), and recommended phase 2 dose (RP2D). Secondary objectives were to assess safety and tolerability, pharmacokinetics (PK, including food effect) and antitumor activity. Pharmacodynamic biomarker assessments were exploratory. Treatment was discontinued if there was disease progression, toxicity or consent withdrawal.
In Part 1, M2698 monotherapy was investigated in a dose escalation with a food effect cohort. In Part 2, M2698 was investigated as monotherapy (expansion cohort) to further characterize safety, tolerability and pharmacokinetics, and assess antitumor activity in PAM + patients without confounding markers (exploratory).
Dose escalation analysis included all patients who experienced a DLT and those who received ≥ 80% of planned M2698 doses in cycle 1 without experiencing a DLT. Safety analysis included all patients who received ≥ 1 dose of M2698. PK analysis included all patients who received ≥ 1 dose of M2698 and had measurable plasma concentrations. Dose proportionality was tested using the power model (linear regression approach on the log -transformed scale).

## NC(=O)c1cccc2c(N[C@H](CN3CCC3)c3ccc(Cl)c(C(F)(F)F)c3)ncnc12 [M2698]
75 mg n=4
  M2698-related TEAE: Ataxia: 0
  M2698-related TEAE: Blood and lymphatic system disorders: 0
  M2698-related TEAE: Blood creatine phosphokinase increased: 1
  M2698-related TEAE: Blood creatinine increased: 0
  M2698-related TEAE: Cardiac disorders: 0
  M2698-related TEAE: Cognitive disorder: 0
  M2698-related TEAE: Constipation: 0
  M2698-related TEAE: Decreased appetite: 0
  M2698-related TEAE: Delusion: 0
  M2698-related TEAE: Depression: 0
  M2698-related TEAE: Diarrhoea: 0
  M2698-related TEAE: Diarrhoea haemorrhagic: 0
  M2698-related TEAE: Dizziness: 0
  M2698-related TEAE: Dry eye: 0
  M2698-related TEAE: Dry mouth: 0
  M2698-related TEAE: Dysgeusia: 1
  M2698-related TEAE: Dyspepsia: 0
  M2698-related TEAE: Dysphagia: 0
  M2698-related TEAE: Energy increased: 0
  M2698-related TEAE: Erythema: 0
  M2698-related TEAE: Euphoric mood: 0
  M2698-related TEAE: Eye disorders: 0
  M2698-related TEAE: Fatigue: 0
  M2698-related TEAE: Gamma-glutamyltransferase increased: 0
  M2698-related TEAE: Gastrointestinal disorders: 0
  M2698-related TEAE: Gastrooesophageal reflux disease: 0
  M2698-related TEAE: General disorders and administration site conditions: 0
  M2698-related TEAE: Headache: 0
  M2698-related TEAE: Hyperhidrosis: 0
  M2698-related TEAE: Hypokalaemia: 0
  M2698-related TEAE: Hypomagnesaemia: 0
  M2698-related TEAE: Insomnia: 0
  M2698-related TEAE: Investigations: 1
  M2698-related TEAE: Lipase increased: 0
  M2698-related TEAE: Lymphopenia: 0
  M2698-related TEAE: Metabolism and nutrition disorders: 0
  M2698-related TEAE: Mucosal inflammation: 0
  M2698-related TEAE: Nausea: 0
  M2698-related TEAE: Nervous system disorders: 1
  M2698-related TEAE: Nightmare: 1
  M2698-related TEAE: Onychomadesis: 0
  M2698-related TEAE: Paranoia: 0
  M2698-related TEAE: Photosensitivity reaction: 0
  M2698-related TEAE: Posterior reversible encephalopathy syndrome: 0
  M2698-related TEAE: Pruritus generalised: 0
  M2698-related TEAE: Psychiatric disorders: 1
  M2698-related TEAE: Rash: 0
  M2698-related TEAE: Rash maculo-papular: 1
  M2698-related TEAE: Skin and subcutaneous tissue disorders: 1
  M2698-related TEAE: Subjects with at least one event: 2
  M2698-related TEAE: Transaminases increased: 0
  M2698-related TEAE: Tremor: 0
  M2698-related TEAE: Vision blurred: 0
  M2698-related TEAE: Vomiting: 0
  M2698-related TEAE: White blood cell count decreased: 0
110 mg n=4
  M2698-related TEAE: Abnormal dreams: 0
  M2698-related TEAE: Affect lability: 0
  M2698-related TEAE: Alanine aminotransferase increased: 0
  M2698-related TEAE: Amylase increased: 0
  M2698-related TEAE: Anaemia: 0
  M2698-related TEAE: Angina pectoris: 0
  M2698-related TEAE: Anxiety: 0
  M2698-related TEAE: Aphasia: 0
  M2698-related TEAE: Ataxia: 0
  M2698-related TEAE: Blood and lymphatic system disorders: 0
  M2698-related TEAE: Blood creatine phosphokinase increased: 0
  M2698-related TEAE: Blood creatinine increased: 0
  M2698-related TEAE: Cardiac disorders: 0
  M2698-related TEAE: Cognitive disorder: 0
  M2698-related TEAE: Constipation: 1
  M2698-related TEAE: Decreased appetite: 0
  M2698-related TEAE: Delusion: 0
  M2698-related TEAE: Depression: 0
  M2698-related TEAE: Diarrhoea: 0
  M2698-related TEAE: Diarrhoea haemorrhagic: 0
  M2698-related TEAE: Dizziness: 0
  M2698-related TEAE: Dry eye: 0
  M2698-related TEAE: Dry mouth: 0
  M2698-related TEAE: Dysgeusia: 0
  M2698-related TEAE: Dyspepsia: 0
  M2698-related TEAE: Dysphagia: 0
  M2698-related TEAE: Energy increased: 0
  M2698-related TEAE: Erythema: 0
  M2698-related TEAE: Euphoric mood: 0
  M2698-related TEAE: Eye disorders: 0
  M2698-related TEAE: Fatigue: 0
  M2698-related TEAE: Gamma-glutamyltransferase increased: 0
  M2698-related TEAE: Gastrointestinal disorders: 1
  M2698-related TEAE: Gastrooesophageal reflux disease: 0
  M2698-related TEAE: General disorders and administration site conditions: 0
  M2698-related TEAE: Headache: 0
  M2698-related TEAE: Hyperhidrosis: 0
  M2698-related TEAE: Hypokalaemia: 0
  M2698-related TEAE: Hypomagnesaemia: 0
  M2698-related TEAE: Insomnia: 0
  M2698-related TEAE: Investigations: 0
  M2698-related TEAE: Lipase increased: 0
  M2698-related TEAE: Lymphopenia: 0
  M2698-related TEAE: Metabolism and nutrition disorders: 0
  M2698-related TEAE: Mucosal inflammation: 0
  M2698-related TEAE: Nausea: 1
  M2698-related TEAE: Nervous system disorders: 0
  M2698-related TEAE: Nightmare: 0
  M2698-related TEAE: Onychomadesis: 0
  M2698-related TEAE: Paranoia: 0
  M2698-related TEAE: Photosensitivity reaction: 0
  M2698-related TEAE: Posterior reversible encephalopathy syndrome: 0
  M2698-related TEAE: Pruritus generalised: 0
  M2698-related TEAE: Psychiatric disorders: 0
  M2698-related TEAE: Rash: 0
  M2698-related TEAE: Rash maculo-papular: 0
  M2698-related TEAE: Skin and subcutaneous tissue disorders: 0
  M2698-related TEAE: Subjects with at least one event: 1
  M2698-related TEAE: Transaminases increased: 0
  M2698-related TEAE: Tremor: 0
  M2698-related TEAE: Vision blurred: 0
  M2698-related TEAE: Vomiting: 0
  M2698-related TEAE: White blood cell count decreased: 0
160 mg n=6
  M2698-related TEAE: Abnormal dreams: 1
  M2698-related TEAE: Affect lability: 0
  M2698-related TEAE: Alanine aminotransferase increased: 0
  M2698-related TEAE: Amylase increased: 0
  M2698-related TEAE: Anaemia: 0
  M2698-related TEAE: Angina pectoris: 0
  M2698-related TEAE: Anxiety: 0
  M2698-related TEAE: Aphasia: 0
  M2698-related TEAE: Ataxia: 0
  M2698-related TEAE: Blood and lymphatic system disorders: 1
  M2698-related TEAE: Blood creatine phosphokinase increased: 0
  M2698-related TEAE: Blood creatinine increased: 0
  M2698-related TEAE: Cardiac disorders: 0
  M2698-related TEAE: Cognitive disorder: 0
  M2698-related TEAE: Constipation: 0
  M2698-related TEAE: Decreased appetite: 0
  M2698-related TEAE: Delusion: 0
  M2698-related TEAE: Depression: 0
  M2698-related TEAE: Diarrhoea: 0
  M2698-related TEAE: Diarrhoea haemorrhagic: 0
  M2698-related TEAE: Dizziness: 0
  M2698-related TEAE: Dry eye: 1
  M2698-related TEAE: Dry mouth: 1
  M2698-related TEAE: Dysgeusia: 1
  M2698-related TEAE: Dyspepsia: 0
  M2698-related TEAE: Dysphagia: 1
  M2698-related TEAE: Energy increased: 1
  M2698-related TEAE: Erythema: 1
  M2698-related TEAE: Euphoric mood: 1
  M2698-related TEAE: Eye disorders: 1
  M2698-related TEAE: Fatigue: 0
  M2698-related TEAE: Gamma-glutamyltransferase increased: 1
  M2698-related TEAE: Gastrointestinal disorders: 1
  M2698-related TEAE: Gastrooesophageal reflux disease: 0
  M2698-related TEAE: General disorders and administration site conditions: 1
  M2698-related TEAE: Headache: 0
  M2698-related TEAE: Hyperhidrosis: 0
  M2698-related TEAE: Hypokalaemia: 0
  M2698-related TEAE: Hypomagnesaemia: 0
  M2698-related TEAE: Insomnia: 1
  M2698-related TEAE: Investigations: 3
  M2698-related TEAE: Lipase increased: 0
  M2698-related TEAE: Lymphopenia: 1
  M2698-related TEAE: Metabolism and nutrition disorders: 0
  M2698-related TEAE: Mucosal inflammation: 0
  M2698-related TEAE: Nausea: 0
  M2698-related TEAE: Nervous system disorders: 1
  M2698-related TEAE: Nightmare: 0
  M2698-related TEAE: Onychomadesis: 0
  M2698-related TEAE: Paranoia: 0
  M2698-related TEAE: Photosensitivity reaction: 0
  M2698-related TEAE: Posterior reversible encephalopathy syndrome: 0
  M2698-related TEAE: Pruritus generalised: 0
  M2698-related TEAE: Psychiatric disorders: 2
  M2698-related TEAE: Rash: 1
  M2698-related TEAE: Rash maculo-papular: 0
  M2698-related TEAE: Skin and subcutaneous tissue disorders: 2
  M2698-related TEAE: Subjects with at least one event: 4
  M2698-related TEAE: Transaminases increased: 1
  M2698-related TEAE: Tremor: 0
  M2698-related TEAE: Vision blurred: 0
  M2698-related TEAE: Vomiting: 0
  M2698-related TEAE: White blood cell count decreased: 1
160 mg, n = 1
  DLT observed: grade 3 increase in gamma-glutamyltransferase
200 mg n=3
  M2698-related TEAE: Abnormal dreams: 0
  M2698-related TEAE: Affect lability: 0
  M2698-related TEAE: Alanine aminotransferase increased: 0
  M2698-related TEAE: Amylase increased: 0
  M2698-related TEAE: Anaemia: 1
  M2698-related TEAE: Angina pectoris: 0
  M2698-related TEAE: Anxiety: 0
  M2698-related TEAE: Aphasia: 0
  M2698-related TEAE: Ataxia: 0
  M2698-related TEAE: Blood and lymphatic system disorders: 1
  M2698-related TEAE: Blood creatine phosphokinase increased: 0
  M2698-related TEAE: Blood creatinine increased: 0
  M2698-related TEAE: Cardiac disorders: 0
  M2698-related TEAE: Cognitive disorder: 0
  M2698-related TEAE: Constipation: 0
  M2698-related TEAE: Decreased appetite: 1
